Measured values as given in ChEMBL document CHEMBL3046639, “Syntheses of tetrahydronaphthalenes. Part II” (Tetrahedron, 1994).
Activity calls are given as the source filed them. How the calls were made is not given here.

Test: Pre-emergence herbicidal activity against narrowleaf weed at 0.5 lb/acre
Type: functional

Question: For `CN(C)c1c([N+](=O)[O-])cc([N+](=O)[O-])c2c1C(C)(C)CCC2`, which Activity is on record?
Answer: Its Activity is “inactive”.

Question: Which Activity does the source give for `CCSc1c([N+](=O)[O-])cc2c(c1[N+](=O)[O-])CCCC2(C)C` here?
Answer: The Activity was “inactive”.

Question: For `Fc1ccc2c(c1)CCCC21CCCCC1`, which Activity is on record?
Answer: The Activity was “inactive”.

Question: For `COc1c([N+](=O)[O-])cc2c(c1[N+](=O)[O-])CCCC2(C)C`, which Activity is on record?
Answer: The Activity was “inactive”.

Question: With `CC1(C)CCCc2c1cc([N+](=O)[O-])c(F)c2[N+](=O)[O-]` as the molecule, how does the Activity read?
Answer: Its Activity is “inactive”.

Question: Which Activity does the source give for `CC1(C)CCCc2c(F)cc(F)cc21` here?
Answer: The Activity was “inactive”.

Question: With `Cc1cc2c(c(C)c1C(=O)N(C)C)CCCC2(C)C` as the molecule, how does the Activity read?
Answer: Its Activity is “inactive”.

Question: With `CCC(CC)Nc1c([N+](=O)[O-])cc2c(c1[N+](=O)[O-])CCCC2C` (configuration not stated) as the molecule, how does the Activity read?
Answer: Its Activity is “inactive”.

Question: Which Activity does the source give for `CCOC(=O)c1c(C)cc2c(c1C)CCCC2(C)C` here?
Answer: Its Activity is “inactive”.

Question: Which Activity does the source give for `CC(C)C1(C)CCCc2c1cc([N+](=O)[O-])c(N(C)C)c2[N+](=O)[O-]` (configuration not stated) here?
Answer: The Activity was “inactive”.

Question: For `COc1c2c(cc(F)c1C(C)=O)C(C)(C)CCC2`, which Activity is on record?
Answer: The Activity was “inactive”.

Question: Which Activity does the source give for `COc1c([N+](=O)[O-])cc2c(c1[N+](=O)[O-])CCCC2(C)C(C)C` (configuration not stated) here?
Answer: Its Activity is “inactive”.

Question: For `CC1(C)CCCc2c([N+](=O)[O-])cc([N+](=O)[O-])c(F)c21`, which Activity is on record?
Answer: Its Activity is “inactive”.

Question: With `CCCC1(CCC)CCCc2c1cc([N+](=O)[O-])c(N(C)C)c2[N+](=O)[O-]` as the molecule, how does the Activity read?
Answer: Its Activity is “inactive”.

Question: For `COC(=O)c1cc2c(cc1OC)CCCC2(C)C`, which Activity is on record?
Answer: Its Activity is “inactive”.

Question: With `CCCC1(CCC)CCCc2cc(N(C)C)c([N+](=O)[O-])cc21` as the molecule, how does the Activity read?
Answer: The Activity was “inactive”.

Question: For `COC(=O)c1c(C)cc2c(c1C)CCCC2(C)C`, which Activity is on record?
Answer: Its Activity is “Active”.

Question: With `CC1(C)CCCc2cc(F)c([N+](=O)[O-])cc21` as the molecule, how does the Activity read?
Answer: The Activity was “inactive”.

Question: Which Activity does the source give for `CCCCOC(=O)c1c(C)cc2c(c1C)CCCC2(C)C` here?
Answer: The Activity was “inactive”.

Question: For `CCNc1c([N+](=O)[O-])cc2c(c1[N+](=O)[O-])CCCC2(C)C`, which Activity is on record?
Answer: Its Activity is “inactive”.

Question: With `COc1cc2c(cc1C(C)=O)C(C)(C)CCC2` as the molecule, how does the Activity read?
Answer: Its Activity is “inactive”.

Question: Which Activity does the source give for `CCCC1(CCC)CCCc2c1cc([N+](=O)[O-])c(NC(CC)CC)c2[N+](=O)[O-]` here?
Answer: Its Activity is “inactive”.

Question: Which Activity does the source give for `COc1c([N+](=O)[O-])cc([N+](=O)[O-])c2c1C(C)(C)CCC2` here?
Answer: Its Activity is “inactive”.

Question: Which Activity does the source give for `CCC(CC)Nc1c([N+](=O)[O-])cc2c(c1[N+](=O)[O-])CCCC21CCCCC1` here?
Answer: Its Activity is “inactive”.

Question: For `COc1cc2c(cc1C(=O)O)C(C)(C)CCC2`, which Activity is on record?
Answer: Its Activity is “inactive”.

Question: With `CNc1c([N+](=O)[O-])cc2c(c1[N+](=O)[O-])CCCC2(C)C` as the molecule, how does the Activity read?
Answer: The Activity was “inactive”.

Question: Which Activity does the source give for `Cc1cc2c(c(C)c1C(=O)C(Br)(Br)Br)CCCC2(C)C` here?
Answer: The Activity was “inactive”.

Question: For `CCS(=O)(=O)c1c([N+](=O)[O-])cc2c(c1[N+](=O)[O-])CCCC2(C)C`, which Activity is on record?
Answer: The Activity was “inactive”.

Question: Which Activity does the source give for `CCCN(CCC)c1c([N+](=O)[O-])cc2c(c1[N+](=O)[O-])CCCC2(C)C` here?
Answer: Its Activity is “inactive”.

Question: For `COc1ccc(C(=O)O)c2c1C(C)(C)CCC2`, which Activity is on record?
Answer: Its Activity is “inactive”.

Question: Which Activity does the source give for `Cc1cc2c(c(C)c1C(=O)O)CCCC2(C)C` here?
Answer: Its Activity is “inactive”.

Question: With `COc1cc(OC)c2c(c1)C(C)(C)CCC2` as the molecule, how does the Activity read?
Answer: The Activity was “inactive”.

Question: With `CCC(=O)c1c(C)cc2c(c1C)CCCC2(C)C` as the molecule, how does the Activity read?
Answer: Its Activity is “inactive”.

Question: Which Activity does the source give for `CN(C)c1c([N+](=O)[O-])cc2c(c1[N+](=O)[O-])CCCC2(C)C` here?
Answer: Its Activity is “inactive”.

Question: For `CC1CCCc2cc(F)ccc21` (configuration not stated), which Activity is on record?
Answer: Its Activity is “inactive”.

Question: Which Activity does the source give for `CC(C)C1(C)CCCc2cc(F)ccc21` (configuration not stated) here?
Answer: The Activity was “inactive”.

Question: With `CCCC1(CCC)CCCc2cc(F)ccc21` as the molecule, how does the Activity read?
Answer: Its Activity is “inactive”.

Question: With `COc1ccc(C(C)=O)c2c1C(C)(C)CCC2` as the molecule, how does the Activity read?
Answer: Its Activity is “inactive”.

Question: Which Activity does the source give for `CC(C)c1cc(C(C)C)c2c(c1)C(C)(C)CCC2` here?
Answer: Its Activity is “inactive”.

Question: Which Activity does the source give for `CCC(CC)Nc1c([N+](=O)[O-])cc2c(c1[N+](=O)[O-])CCCC2(C)C(C)C` (configuration not stated) here?
Answer: Its Activity is “inactive”.

Question: For `CC(=O)c1c(C)cc2c(c1C)CCCC2(C)C`, which Activity is on record?
Answer: Its Activity is “inactive”.

Question: With `CC(C)C1(C)CCCc2c1cc([N+](=O)[O-])c(F)c2[N+](=O)[O-]` (configuration not stated) as the molecule, how does the Activity read?
Answer: Its Activity is “inactive”.

Question: Which Activity does the source give for `CCCC1(CCC)CCCc2c1cc([N+](=O)[O-])c(F)c2[N+](=O)[O-]` here?
Answer: Its Activity is “inactive”.

Question: With `CCN(CC)c1c([N+](=O)[O-])cc2c(c1[N+](=O)[O-])CCCC2(C)C` as the molecule, how does the Activity read?
Answer: The Activity was “inactive”.

Question: Which Activity does the source give for `COC(=O)c1ccc(OC)c2c1CCCC2(C)C` here?
Answer: The Activity was “inactive”.

Question: With `Cc1cc(C)c2c(c1)C(C)(C)CCC2` as the molecule, how does the Activity read?
Answer: The Activity was “inactive”.

Question: With `CN(C)c1c([N+](=O)[O-])cc2c(c1[N+](=O)[O-])CCCC21CCCCC1` as the molecule, how does the Activity read?
Answer: The Activity was “inactive”.

Question: Which Activity does the source give for `CN(C)c1cc2c(cc1[N+](=O)[O-])C(C)(C)CCC2` here?
Answer: The Activity was “inactive”.

Question: For `CC(=O)c1c(F)cc2c(c1F)CCCC2(C)C`, which Activity is on record?
Answer: The Activity was “inactive”.

Question: For `O=[N+]([O-])c1cc2c(c([N+](=O)[O-])c1F)CCCC21CCCCC1`, which Activity is on record?
Answer: Its Activity is “inactive”.

Question: With `CC1CCCc2c1cc([N+](=O)[O-])c(F)c2[N+](=O)[O-]` (configuration not stated) as the molecule, how does the Activity read?
Answer: Its Activity is “inactive”.

Question: For `CCC(CC)Nc1c([N+](=O)[O-])cc2c(c1[N+](=O)[O-])CCCC2(C)C`, which Activity is on record?
Answer: Its Activity is “Active”.
